These results are taken from patent US11925690B2, “Bifunctional molecules for targeting Rpn11” (AMPHISTA THERAPEUTICS LTD, priority 2018, dated 2024).

Data set [1] has as its target T1, Brd4 (L) (Homo sapiens, UniProt O60885).
T1 construct: endogenous in cells; host or cells: HEK293 (CRL-1573), HeLa (CCL-2)
The experiment in a line: Concentration-dependent BET degradation, immunoblot. To be noted: 4 h, 1 nM-10 μM. In kind it is cell-based. The method, then:
(§1) Immunoblotting. Proteins were separated by SDS-PAGE on NuPage 4-12% Bis-Tris gels, followed by transfer to Amersham Protran 0.45 NC nitrocellulose membrane (GE Healthcare) using wet transfer. Membranes were blocked using 5% w/v milk in Tris-buffered saline (TBS) with 0.1% Tween-20. Blots were probed (overnight at 4 °C) using anti-Brd2 (Abcam ab139690, 1:2,000 dilution), anti-Brd3 (Abcam ab50818, 1:500 dilution), and anti-Brd4 (Abcam ab128874, 1:1,000 dilution) primary antibodies, as appropriate. The next day, blots were washed with TBST and incubated (1 h at Room temperature) with anti-Tubulin hFAB-rhodamine (BioRad, 12004166) primary antibody, and either anti-rabbit IRDye 800CW (Licor 1:1,000 dilution) or anti-mouse IRDye 800CW (Licor 1:1,000 dilution) secondary antibody. Blots were developed using a Bio-Rad ChemiDoc MP Imaging System, and band quantification was performed using Image Studio software (LiCor). Band intensities were normalized to the tubulin loading control and reported as % of the average 0.1% DMSO vehicle intensity. Degradation data was plotted and analysed using Prism (Graphpad, version 8).
(§2) HeLa (5×10^5) and HEK293 (1×10^6) cells were seeded in standard 6-well plates (2 mL medium) overnight before treatment with compounds at the desired concentration (1 nM-10 μM), with a final DMSO concentration of 0.1% v/v. After 4 h treatment time, cells were washed with DPBS (Gibco) and lysed using 85 μL RIPA buffer (Sigma-Aldrich) supplemented with cOmplete Mini EDTA-free protease inhibitor cocktail (Roche) and benzonase. Lysates were clarified by centrifugation (20000 g, 10 min, 4° C.) and the total protein content of the supernatant was quantified using a Bradford colorimetric assay. Samples were prepared using equal amounts of total protein and LDS sample buffer (Invitrogen). Band intensities were normalized to the tubulin loading control and reported as % of the average 0.1% DMSO vehicle intensity. Degradation data was plotted and analysed using Prism (Graphpad, version 8).
(§3) MZ1 and 11JQ17 were used at 1 μM for positive and negative controls, respectively. […] For the table, Dmax: +(Dmax≤25%); ++(26%≤Dmax≤50%); +++(51%≤Dmax≤70%); ++++(71%≤DC50: A (DC50≤50 nM); B (51 nM≤DC50≤500 nM); C (501 nM≤DC50).

For data set [2], the target named is T2, Brd4 (S) (Homo sapiens, UniProt O60885).
T2 construct: endogenous in cells; host or cells: HEK293 (CRL-1573), HeLa (CCL-2)
The data set is described as above. To be noted: 4 h, 1 nM-10 μM. In kind it is cell-based. As for the experimental part: as §1, §2, §3

Data set [3] deals with T3, Brd3 (Homo sapiens, UniProt Q15059). The data set is described as above. In kind it is cell-based. Also on record: endogenous in cells; host or cells: HEK293 (CRL-1573), HeLa (CCL-2). To be noted: 1 nM-10 μM. The method, then: as §1, §2, §3
For data set [4], the target named is T4, Brd2 (Homo sapiens, UniProt P25440). The description is as above. It counts as cell-based. Also on record: endogenous in cells; host or cells: HEK293 (CRL-1573), HeLa (CCL-2). The conditions noted are these: 1 nM-10 μM. The method, then: as §1, §2, §3
Data set [5] deals with T3, Brd3. The experiment in a line: Time-dependent BET degradation, immunoblot. In kind it is cell-based. To be noted: HEK293, Brd3, 1 μM. As for the experimental part:
as §1
as §2, with “HEK293” for “HeLa (5×10^5) and HEK293”, “(0.5×10^6)” for “(1×10^6)”, “1 μM concentration,” for “the desired concentration (1 nM-10 μM),”, “incubation for the desired time (0-24 hrs),” for “4 h treatment time,”, “complete” for “cOmplete”
(§4) MZ1 and 11JQ17 were used at 1 μM (4 h) for positive and negative controls, respectively. […]

For data set [6], the target named is T4, Brd2. The experiment in a line: Time-dependent BET degradation, immunoblot. In kind it is cell-based. To be noted: HEK293, Brd2, 1 μM. As for the experimental part:
as §1
as §2, with “HEK293” for “HeLa (5×10^5) and HEK293”, “(0.5×10^6)” for “(1×10^6)”, “1 μM concentration,” for “the desired concentration (1 nM-10 μM),”, “incubation for the desired time (0-24 hrs),” for “4 h treatment time,”, “complete” for “cOmplete”
as §4

The target of data set [7] is T1, Brd4 (L). The data set can be described thus: Time-dependent BET degradation, immunoblot. To be noted: HEK293, Brd4 (L). It counts as cell-based. Also noted: Dmax: dose or concentration left out as unconfirmed. As for the experimental part:
as §1
as §2, with “HEK293” for “HeLa (5×10^5) and HEK293”, “(0.5×10^6)” for “(1×10^6)”, “1 μM concentration,” for “the desired concentration (1 nM-10 μM),”, “incubation for the desired time (0-24 hrs),” for “4 h treatment time,”, “complete” for “cOmplete”
as §4

Data set [8] has as its target T2, Brd4 (S). The data set can be described thus: Time-dependent BET degradation, immunoblot. It counts as cell-based. Also noted: Dmax: dose or concentration left out as unconfirmed. To be noted: HEK293, Brd4 (S). As for the experimental part: as §1
as §2, with “HEK293” for “HeLa (5×10^5) and HEK293”, “(0.5×10^6)” for “(1×10^6)”, “1 μM concentration,” for “the desired concentration (1 nM-10 μM),”, “incubation for the desired time (0-24 hrs),” for “4 h treatment time,”, “complete” for “cOmplete”
as §4

A further data set concerns the target T5, Brd4 (Homo sapiens, UniProt O60885).
T5 construct: immunoblot analysis of Brd4 following 4 h treatment of HEK293 cells; endogenous in cells; host or cells: HEK293 (CRL-1573)
The experiment in a line: Mechanistic evaluation: Brd4 degradation after inhibitor pre-treatment. The conditions noted are these: HEK293, 1 μM degrader 4 h. In kind it is cell-based. The method, then: HeLa (5×10^5) and HEK293 (1×10^6) cells were seeded in standard 6-well plates (2 mL medium) overnight before pre-treatment with inhibitors (10 μM bortezomib, 10 μM capzimin, 10 μM JQ1). After a 0.5 h pre-incubation time, cells were subsequently treated with vehicle, 1 μM MZ1 or 1 μM 11JQ15, yielding a final overall DMSO concentration of 0.2% v/v. After 4 h incubation, cells were washed with DPBS (Gibco) and lysed using 85 μL RIPA buffer (Sigma-Aldrich) supplemented with cOmplete Mini EDTA-free protease inhibitor cocktail (Roche) and benzonase. Lysates were clarified by centrifugation (20000 g, 10 min, 4° C.) and the total protein content of the supernatant was quantified using a Bradford colorimetric assay. Samples were prepared using equal amounts of total protein and LDS sample buffer (Invitrogen).
Brd4 band intensities were normalized to tubulin loading control and reported in FIG. 6B as % of the average 0.1% DMSO vehicle intensity. Each bar is mean±SEM of three independent experiments performed in duplicate (n=3).

In the next data set the test system is human cancer cell lines. To be noted: cited from earlier work.
The mark [9] stands for this setting: time to deplete 50% of the protein relative to DMSO.
Setting [10] is: 1 μM, time to deplete 50% of the protein relative to DMSO.
[11] abbreviates: 1 μM, time to reach 50% of the Dmax.

T3 sequence (Q15059 whole entry): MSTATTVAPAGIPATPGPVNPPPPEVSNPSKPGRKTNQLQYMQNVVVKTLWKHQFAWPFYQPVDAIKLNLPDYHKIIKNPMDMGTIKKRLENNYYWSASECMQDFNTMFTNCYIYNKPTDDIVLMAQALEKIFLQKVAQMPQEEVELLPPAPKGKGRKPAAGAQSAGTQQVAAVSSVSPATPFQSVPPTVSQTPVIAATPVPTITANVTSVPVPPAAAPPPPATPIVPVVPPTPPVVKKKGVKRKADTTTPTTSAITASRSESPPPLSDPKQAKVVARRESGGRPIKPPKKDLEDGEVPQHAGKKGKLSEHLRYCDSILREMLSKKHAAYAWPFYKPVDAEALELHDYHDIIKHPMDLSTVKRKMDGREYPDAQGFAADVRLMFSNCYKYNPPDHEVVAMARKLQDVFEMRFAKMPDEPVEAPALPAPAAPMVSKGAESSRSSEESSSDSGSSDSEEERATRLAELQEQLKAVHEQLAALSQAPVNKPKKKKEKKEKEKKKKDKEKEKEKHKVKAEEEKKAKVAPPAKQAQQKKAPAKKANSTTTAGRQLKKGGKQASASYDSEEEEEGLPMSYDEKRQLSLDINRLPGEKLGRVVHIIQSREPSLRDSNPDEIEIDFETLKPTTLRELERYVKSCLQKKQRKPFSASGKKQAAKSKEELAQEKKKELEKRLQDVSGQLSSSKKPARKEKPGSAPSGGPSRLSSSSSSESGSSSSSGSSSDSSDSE
T4 sequence (P25440 whole entry): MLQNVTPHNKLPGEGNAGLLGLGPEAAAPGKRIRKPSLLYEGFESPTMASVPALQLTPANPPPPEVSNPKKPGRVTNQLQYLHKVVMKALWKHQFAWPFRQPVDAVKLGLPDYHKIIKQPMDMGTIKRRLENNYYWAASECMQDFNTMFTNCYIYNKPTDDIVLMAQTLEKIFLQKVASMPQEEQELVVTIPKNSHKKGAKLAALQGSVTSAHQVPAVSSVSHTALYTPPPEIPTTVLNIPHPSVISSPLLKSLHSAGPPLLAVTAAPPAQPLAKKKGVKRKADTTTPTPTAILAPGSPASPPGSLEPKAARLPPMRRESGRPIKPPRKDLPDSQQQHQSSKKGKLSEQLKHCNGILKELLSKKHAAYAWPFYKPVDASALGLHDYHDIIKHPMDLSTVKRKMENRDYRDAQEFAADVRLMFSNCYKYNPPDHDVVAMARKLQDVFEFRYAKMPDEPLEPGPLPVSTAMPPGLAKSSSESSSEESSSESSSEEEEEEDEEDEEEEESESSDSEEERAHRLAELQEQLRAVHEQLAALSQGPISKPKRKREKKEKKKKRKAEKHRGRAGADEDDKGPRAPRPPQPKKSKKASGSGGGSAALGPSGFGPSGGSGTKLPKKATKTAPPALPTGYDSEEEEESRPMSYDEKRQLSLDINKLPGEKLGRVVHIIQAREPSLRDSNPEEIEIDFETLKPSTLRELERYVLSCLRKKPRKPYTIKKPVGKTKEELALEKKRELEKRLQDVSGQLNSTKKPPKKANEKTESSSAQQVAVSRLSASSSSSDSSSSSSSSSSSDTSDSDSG

In the case of `Cc1sc2c(c1C)C(c1ccc(Cl)cc1)=N[C@@H](CC(=O)NCCOCCNC(=O)c1cc(S)c3ncc(C(=O)NCCc4nccs4)cc3c1)c1nnc(C)n1-2` [Example 11JQ1], the half-maximal degradation concentration (DC50) is 51 to 500 nM at Brd4 (L) [1] (HEK293, Brd4 (L)); 51 to 500 nM at Brd4 (L) [1] (HeLa); 51 to 500 nM at Brd4 (S) [2] (HEK293, Brd4 (S)); 51 to 500 nM on Brd4 (S) [2] (HeLa); not below 501 nM on Brd3 [3] (HEK293, Brd3, 4 h); not below 501 nM on Brd3 [3] (HeLa, Brd3, 4 h). Besides, the DC50 on Brd2 [4] (HEK293, Brd2, 4 h) fell in the range of 51 to 500 nM; at Brd2 [4] (HeLa, Brd2, 4 h), 51 to 500 nM. The Dmax was not below 71% on Brd4 (L) [1] (HEK293, Brd4 (L)); not below 71% at Brd4 (L) [1] (HeLa); not below 71% on Brd4 (S) [2] (HEK293, Brd4 (S)); not below 71% at Brd4 (S) [2] (HeLa); 51 to 70% at Brd3 [3] (HEK293, Brd3, 4 h); 51 to 70% at Brd3 [3] (HeLa, Brd3, 4 h). In addition, the Dmax at Brd2 [4] (HEK293, Brd2, 4 h) is not below 71%; on Brd2 [4] (HeLa, Brd2, 4 h), 26 to 50%; on Brd4 (L) [7] (0-24 hrs) it was 95%; on Brd4 (S) [8] (0-24 hrs), 95%. Also, the Dmax at 1 µM at Brd3 [5] (0-24 hrs) amounted to 90%; on Brd2 [6] (0-24 hrs), 60%. The “Abs. T1/2” value on Brd3 [5] (setting [9]) is recorded as 3.5 h; on Brd2 [6] (setting [9]) it was 3.5 h; at Brd4 (L) [7] (setting [10]) it was 1.7 h; on Brd4 (S) [8] (setting [10]), 1.9 h. In addition, the “T1/2” value turned out to be 2.7 h on Brd3 [5] (time to reach 50% of the Dmax), 1.0 h on Brd2 [6] (time to reach 50% of the Dmax), 1.6 h on Brd4 (L) [7] (setting [11]) and 2 h on Brd4 (S) [8] (setting [11]).

`Cc1sc2c(c1C)C(c1ccc(Cl)cc1)=N[C@@H](CC(=O)NCCCCNC(=O)c1cc(S)c3ncc(C(=O)NCc4ccc(F)cc4)cc3c1)c1nnc(C)n1-2` [Example 11JQ12]: the DC50 on Brd4 (L) [1] (HEK293, Brd4 (L)) was 51 to 500 nM; at Brd4 (L) [1] (HeLa), not below 501 nM; at Brd4 (S) [2] (HEK293, Brd4 (S)), 51 to 500 nM; on Brd4 (S) [2] (HeLa) it was not below 501 nM; at Brd3 [3] (HEK293, Brd3, 4 h), not below 501 nM; at Brd3 [3] (HeLa, Brd3, 4 h), not below 501 nM. The DC50 is not below 501 nM at Brd2 [4] (HEK293, Brd2, 4 h) and not below 501 nM at Brd2 [4] (HeLa, Brd2, 4 h). Moreover, the Dmax on Brd4 (L) [1] (HEK293, Brd4 (L)) is not below 71%; on Brd4 (L) [1] (HeLa), not below 71%; on Brd4 (S) [2] (HEK293, Brd4 (S)) it was not below 71%; at Brd4 (S) [2] (HeLa) it was not below 71%; at Brd3 [3] (HEK293, Brd3, 4 h), 26 to 50%; on Brd3 [3] (HeLa, Brd3, 4 h), not above 25%. The greatest degradation seen (Dmax) at Brd2 [4] (HEK293, Brd2, 4 h) lay within 26 to 50%; on Brd2 [4] (HeLa, Brd2, 4 h), 26 to 50%.

For the molecule `Cc1ncsc1-c1ccc(CNC(=O)[C@@H]2C[C@@H](O)CN2C(=O)[C@@H](NC(=O)COCCOCCOCCNC(=O)C[C@@H]2N=C(c3ccc(Cl)cc3)c3c(sc(C)c3C)-n3c(C)nnc32)C(C)(C)C)cc1` [MZ1, reference compound], on Brd4 (10 μM JQ1 pre-treatment 0.5 h), the “Brd4 degradation in the presence of JQ1” value was “blocked”. Also, the “Brd4 degradation in the presence of bortezomib” value at Brd4 (10 μM bortezomib pre-treatment 0.5 h) is “blocked”. In addition, at Brd4 (10 μM capzimin pre-treatment 0.5 h), the “Brd4 degradation in the presence of capzimin” value was “only blocked by bortezomib and JQ1”.

In the case of `Cn1c(COP(=O)(NCCBr)NCCBr)cnc1[N+](=O)[O-]` [TH-302, (1-methyl-2-nitro-1H-imidazole5-yl) N, N0-bis (2-bromoethyl) diamidophosphate], the cytotoxic potency entry in the data set with human cancer cell lines (hypoxic conditions) is “greatly enhanced cytotoxic potency”. The cytotoxic activity result in the data set on human cancer cell lines (normoxic conditions) is “little cytotoxic activity”.
